The structures appear in SMILES notation. Read-outs that look alike come from different tables or passages of the source.

The test system of one series is K562 cell line. The experiment in a line: Anti-multidrug resistance evaluation, parent cell line. Format: cell-based. Particulars: Homo sapiens; K562 cells. The text has this: (§1) 2. The multidrug resistance cell line K562/A02 and its parent K562 cell line were used to evaluate the anti-multidrug resistance of the CPT-4 active metabolite.
The test system of series [1] is multidrug resistance cell line K562/A02. The experiment in a line: Anti-multidrug resistance evaluation, multidrug resistance cell line. The format is cell-based.
Excerpt: as §1

A further series relates to A549. The experiment in a line: SRB protein staining tumor cell proliferation assay. Particulars: read-out: IC50(mean ± SD). Format: cell-based. The text has this:
(§2) 1. Sulfonyl rhodamine B (SRB) protein staining assays were used to detect the inhibition of tumor cell proliferation of the compound.
In general terms: Sulforhodamine B stains cellular protein and so reports cell mass.

The next series concerns BEL-7402. Described as above. Format: cell-based. The settings on record: read-out: IC50(mean ± SD).
Excerpt: as §2

The test system of the next series is HCT-15. Described as above. Format: cell-based. Particulars: read-out: IC50(mean ± SD).
Excerpt: as §2

A further series relates to HL-60. The description is as above. Particulars: read-out: IC50(mean ± SD). The format is cell-based.
Excerpt: as §2

A further series has as its system HO-8910. The description is as above. Format: cell-based. Particulars: read-out: IC50(mean ± SD).
Excerpt: as §2

In the next series the test system is MCF-7. The description is as above. Format: cell-based.
Excerpt: as §2

The next series deals with MDA-MB-435. The series is described as above. Particulars: read-out: IC50(mean ± SD). The format is cell-based.
Excerpt: as §2

The subject of another series is MDA-MB-468. The description is as above. Format: cell-based. The settings on record: read-out: IC50(mean ± SD).
Excerpt: as §2

In the next series the test system is MKN-28. The description is as above. The settings on record: read-out: IC50(mean ± SD). Format: cell-based.
Excerpt: as §2

The next series has as its system NCI-H23. The series is described as above. Format: cell-based. The settings on record: read-out: IC50(mean ± SD).
Excerpt: as §2

The next series has as its system SGC-7901. The series is described as above. Format: cell-based. Particulars: read-out: IC50(mean ± SD).
Excerpt: as §2

A further series deals with SMMC-7721. The series is described as above. Format: cell-based. Particulars: read-out: IC50(mean ± SD).
Excerpt: as §2

Another series concerns HCT-116. The series is described as above. Format: cell-based, human. Particulars: read-out: IC50(mean ± SD).
Excerpt: as §2

In series [2] the test system is thirteen tumor cell lines. Nature of the series: SRB proliferation assay, panel of thirteen tumor cell lines. Format: cell-based. Particulars: mean over thirteen tumor cell lines.
Excerpt: as §2

The subject of series [3] is human lung cancer SPC-A4 xenografts. The experiment in a line: Human lung cancer SPC-A4 xenografts in nude mice. The settings on record: for Body weight (g) At the beginning / Body weight (g) At the end / RTV / TV (mm^3) d0 / TV (mm^3) d20 / T/C (%): q3w × 3, i.v.
Series [4] concerns human rectal cancer HCT-116 xenografts. The experiment in a line: Human rectal cancer HCT-116 xenografts in nude mice. The settings on record: for Body weight (g) At the end / RTV / TV (mm^3) d0 / TV (mm^3) d21 / Body weight (g) At the beginning / T/C (%): q3w × 3, i.v. (A xenograft is tissue or cells of one species grown in another, often human tumour cells in immunodeficient mice.)

Setting [5] is: intravenously, three times per week.

Broadly, the IC50 is the concentration needed to halve the response being measured. For the molecule `COc1cccc2c1C(=O)c1c(O)c3c(c(O)c1C2=O)C[C@@](O)(C(=O)CO)C[C@@H]3O[C@H]1C[C@H](N)[C@H](O)[C@H](C)O1` [adriamycin], the IC50 in the series on K562 cell line stood at 0.493 µM; in series [1] (Homo sapiens, K562/A02 cells), 69.1 µM. In addition, the “Resistance Factor (RF)” value in series [1] (K562/A02 versus K562) was found to be 140.24.
As for `CC[C@@]1(O)C(=O)OCc2c1cc1n(c2=O)Cc2cc3c(CN(C)C)c(O)ccc3nc2-1` [TPT, Topotecan], the concentration for half-maximal inhibition (IC50) was 0.0281 ± 0.0068 µM in the series with A549 (Homo sapiens); 0.42 ± 0.0797 µM in the series on BEL-7402 (Homo sapiens, Bel-7402); 0.0144 ± 0.00441 µM with HCT-15 (Homo sapiens); 0.0233 ± 0.00132 µM with HL-60 (Homo sapiens); 1.38 ± 0.0444 µM with HO-8910; 0.387 ± 0.0456 µM with MCF-7 (Homo sapiens, MCF7, read-out: IC50(mean ± SD)). In addition, the half-maximal inhibitory concentration (IC50) in the series with MDA-MB-435 (Homo sapiens) is 0.0497 ± 0.00605 µM; in the series with MDA-MB-468 (Homo sapiens) it was 0.176 ± 0.0975 µM; in the series with MKN-28 (Homo sapiens), 0.412 ± 0.188 µM; in the series with NCI-H23 (Homo sapiens), 0.122 ± 0.0363 µM; in the series with SGC-7901 (Homo sapiens), 0.489 ± 0.0965 µM; with SMMC-7721 (Homo sapiens), 1.38 ± 0.172 µM. Besides, the IC50 in the series on HCT-116 (Homo sapiens) was determined as 0.038 ± 0.00219 µM; in series [2], 0.379 µM.
For `CCc1c2c(nc3ccc(O)cc13)-c1cc3c(c(=O)n1C2)COC(=O)[C@]3(O)CC` [SN38], the 50% inhibitory concentration (IC50) was 0.0059 ± 0.00161 µM with A549; 0.136 ± 0.0347 µM in the series with BEL-7402 (BEL-7402); 0.00613 ± 0.00407 µM in the series on HCT-15; 0.0067 ± 0.00126 µM in the series with HL-60; 1.12 ± 0.171 µM with HO-8910; 0.073 ± 0.0156 µM with MCF-7 (read-out: IC50(mean ± SD)). The concentration for half-maximal inhibition (IC50) in the series on MDA-MB-435 was found to be 0.00342 ± 0.00153 µM; in the series on MDA-MB-468 it was 0.0956 ± 0.0369 µM; with MKN-28, 0.303 ± 0.056 µM; with NCI-H23, 0.234 ± 0.116 µM; in the series with SGC-7901, 0.465 ± 0.0754 µM; with SMMC-7721, 0.379 ± 0.0664 µM. The values for the IC50 (with HCT-116; in series [2]) were 0.0129 ± 0.0054 µM and 0.218 µM, respectively.
`CC[C@@]1(O)C(=O)OCc2c1cc1n(c2=O)Cc2cc3c([N+](=O)[O-])cccc3nc2-1` [9NC, 9-nitrocamptothecin]: the IC50 in the series with A549 was found to be 0.0319 ± 0.00372 µM; in the series with BEL-7402 (BEL-7402) it was 0.0588 ± 0.0106 µM; with HCT-15 it was 0.00959 ± 0.00048 µM; in the series on HL-60, 0.0206 ± 0.00256 µM; in the series on HO-8910 it was 0.227 ± 0.0408 µM; in the series on MCF-7 (read-out: IC50(mean ± SD)), 0.0626 ± 0.0198 µM. Besides, the half-inhibitory concentration (IC50) stood at 0.0185 ± 0.00614 µM with MDA-MB-435; 0.0649 ± 0.0296 µM in the series on MDA-MB-468; 0.116 ± 0.00648 µM in the series on MKN-28; 0.0703 ± 0.0146 µM in the series with NCI-H23; 0.098 ± 0.00687 µM with SGC-7901; 1.38 ± 0.025 µM in the series on SMMC-7721. Further, the IC50 was 0.0137 ± 0.0014 µM in the series on HCT-116 and 0.167 µM in series [2].
As for `CCc1c2c(nc3ccc(OC(=O)N4CCC(N5CCCCC5)CC4)cc13)-c1cc3c(c(=O)n1C2)COC(=O)[C@]3(O)CC` [CPT-11, Irinotecan], in series [3] (15 mg/kg), the “Body weight (g) At the beginning” value was 18.2 g, the “Body weight (g) At the end” value is reported as 18.7 g, the RTV is 0.5 ± 0.5 and the “TV (mm^3) d0” value is reported as 121 ± 34 mm^3. Also, the “TV (mm^3) d20” value in series [3] (15 mg/kg) came to 55 ± 39 mm^3. In addition, in [4] (15 mg/kg), the “Body weight (g) At the end” value came out at 18.3 g, the RTV amounted to 1.9 ± 1.1, the “TV (mm^3) d0” value was determined as 101 ± 60 mm^3 and the “TV (mm^3) d21” value came out at 171 ± 86 mm^3.
Consider `C=CCc1c(OC(=O)N2CCC(N3CCCCC3)CC2)ccc2nc3c(cc12)Cn1c-3cc2c(c1=O)COC(=O)[C@]2(O)CC` [CPT-4, 10-((4′-piperidylpiperidine)carbonyloxy)-9-allylcamptothecin], for which, in series [3] (3.75 mg/kg), the “Body weight (g) At the beginning” value was found to be 17.8 g, the “Body weight (g) At the end” value was found to be 19.3 g, the RTV stood at 19 ± 5.5 and the “T/C (%)” value was found to be 41.4%. In series [3] (3.75 mg/kg), the “TV (mm^3) d0” value is given as 104 ± 22 mm^3 and the “TV (mm^3) d20” value is reported as 1931 ± 533 mm^3. Moreover, in series [3] (7.5 mg/kg), the “Body weight (g) At the beginning” value is given as 17.5 g, the “Body weight (g) At the end” value is 19.3 g, the RTV is 14 ± 5.5 and the “T/C (%)” value came out at 31.4%. Moreover, in series [3] (7.5 mg/kg), the “TV (mm^3) d0” value is reported as 108 ± 61 mm^3 and the “TV (mm^3) d20” value stood at 1153 ± 172 mm^3. In series [3] (15 mg/kg), the “Body weight (g) At the beginning” value worked out at 17.3 g, the “Body weight (g) At the end” value was found to be 17.5 g, the RTV is 0.4 ± 0.7 and the “T/C (%)” value worked out at 0.88%. Also, in [3] (15 mg/kg), the “TV (mm^3) d0” value was determined as 106 ± 28 mm^3 and the “TV (mm^3) d20” value was determined as 55 ± 99 mm^3. In addition, in series [3] (setting [5]), the “inhibition of growth of tumor xenografts” value is given as “can significantly inhibit the growth of tumor xenografts” and the “xenograft growth inhibition compared with CPT-11” value is “equivalent to that of CPT-11”. In series [4] (3.75 mg/kg), the “Body weight (g) At the beginning” value turned out to be 20.2 g, the “Body weight (g) At the end” value came to 17.0 g, the RTV came out at 8.4 ± 2.0 and the “T/C (%)” value was 18.9%. Also, in series [4] (3.75 mg/kg), the “TV (mm^3) d0” value worked out at 92 ± 27 mm^3 and the “TV (mm^3) d21” value came to 720 ± 75 mm^3. Besides, in [4] (7.5 mg/kg), the “Body weight (g) At the beginning” value amounted to 19.5 g, the “Body weight (g) At the end” value was 17.2 g, the RTV stood at 3.8 ± 2.2 and the “T/C (%)” value came out at 8.31%. Further, in series [4] (7.5 mg/kg), the “TV (mm^3) d0” value came out at 94 ± 30 mm^3 and the “TV (mm^3) d21” value turned out to be 289 ± 108 mm^3. For the same molecule, in [4] (15 mg/kg), the “Body weight (g) At the beginning” value turned out to be 20.3 g, the “Body weight (g) At the end” value is listed as 17.8 g, the RTV is 1.8 ± 0.5 and the “T/C (%)” value is reported as 3.99%. In [4] (15 mg/kg), the “TV (mm^3) d0” value was found to be 100 ± 20 mm^3 and the “TV (mm^3) d21” value was 172 ± 51 mm^3. In addition, in [4] (setting [5]), the “inhibition of growth of tumor xenografts” value was “can significantly inhibit the growth of tumor xenografts” and the “xenograft growth inhibition compared with CPT-11” value is “equivalent to that of CPT-11”.

The values above are taken from patent US8685997B2, “Camptothecin derivatives and their use” (Shanghai Institute of Materia Medica, Chinese Academy of …, priority 2006, dated 2014).
